From patent US20240293558A1, “KRAS INHIBITOR CONJUGATES” (Erasca, Inc., priority 2021, published 2024) come the findings set out here.

For orientation: IC50 means the midpoint of a concentration-inhibition curve. What is called DC50 is the concentration at which degradation of the target reaches its halfway point.

One assay deals with T1, KRAS (WT) (Homo sapiens, UniProt P01116).
T1 construct: Biotinylated KRAS protein amino acids 1-169 (produced at Erasca); made in house
Put plainly: In-vitro RAS-RAF binding assay (RRB), HTRF/FRET. In kind it is biochemical. As to conditions: Table 2, average of multiple runs of each compound; read-out: Inhibition of RAS-RAF Binding (in-vitro) KRAS (WT) IC50. In a few lines:
(§1)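 Compounds preincubated with terbium-labelled biotinylated KRAS (aa 1-169, 30 nM) before 60 min SOS1-catalysed exchange to GTPgS. Binding of the d2-labelled cRAF RBD (30 nM) is read as FRET at equilibrium in duplicate. Buffer: 50 mM HEPES pH 7.5, 100 mM NaCl, 1 mM MgCl2, 1 mM DTT.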
Background: Time-resolved FRET reads energy transfer from a long-lived donor to a nearby acceptor.

In assay [1] the target is T2, KRas G12D fused to HiBiT peptide (Homo sapiens, UniProt P01116, G12D).
T2 construct: endogenous in cells; host or cells: AsPC-1 HiBiT knock-in single clone (Cas9 RNP + ssODN)
Put plainly: ASPC-1 HiBit assay to determine G12D degradation. In kind it is cell-based. As to conditions: AsPC-1 HiBiT cells, 24-hour incubation; read-out: ASPC-1 HiBit DC50 (C). How it is done:
Compounds presented herein induce degradation of the KRas G12D (KRasG12D) upon treatment of engineered cancer cell line.
The degradation of the KRasG12D in cellular environment was measured using engineered homozygous KRasG12D AsPC-1 cell line in which KRas G12D was fused to luminescent HiBiT peptide at the N-terminal. The small (1.3 kDa) HiBiT peptide complements with high affinity to a larger (18 kDa) subunit evolved from NanoLuc (termed LgBiT). The resulting complex (i.e., reconstituted luciferase enzyme) generates bright luminescence that translates to high sensitivity (1 amol), broad dynamic range (four orders of magnitude), and rapid kinetics for real time quantitation.
To generate HiBit KRasG12D knock-in cell line, sgRNA (SEQ. ID NO: 1) and ssODN (SEQ. ID NO: 2) were designed and synthesized at GenScript.
RNP complex was generated by mixing of 100 pmol of Cas9 protein to PCR tubes containing 300 pmol sgRNA incubating the resultant complex at room temperature for 20 min. […] ssODN was added to RNP complex slowly and RNP-ssODN complex was incubated at room temperature for 10 min. RNP-ssODN complex was mixed with […] of AsPC-1 cells (1×10^6 cells total) and electroporated using Nucleofactor (Program CM-150). Cells were then incubated at ambient temperature for 5 min and transferred to a six-well plate containing 2 ml growth medium.
To select pools with the highest luminescence signal, 10^4 cells of parental AsPC-1 and transfected pools were plated in solid white 384-well tissue culture plates. 24 hours after seeding, HiBiT was detected using the Nano-Glo HiBiT Lytic Detection System (Promega) following manufacturer's instructions. Briefly, […] of Nano-Glo HiBiT Lytic Detection Reagent was added directly to the cells and mixed by inversion before recording luminescence on an Envision (Perkin-Elmer) with 0.5 s integration time.
Single clones were isolated from stable pool by limited dilution method and presence of HiBiT knock-in was verified by TA cloning and subsequent sequencing. Additionally, western blotting analysis was conducted to confirm selection of single clones with high luminescence signal.
For DC50S measurements, AsPC-1 HiBiT single clone cells were grown in RPMI 1640 medium (Invitrogen 22400-089) supplemented with 10% fetal bovine serum. Cells were seeded in 384-well tissue culture plates at a density of 7,000 cells/well and allowed to attach for 24 hours.
Test compounds were distributed directly into assay plate with the adjustment for DMSO concentration using Tecan HP D300e. For most of the experiments, the final concentration of compounds starts from 10 μM, 3-fold dilution dose response and 10 doses. […] DMSO final concentration is 1%. Each concentration of exemplary compound was tested as singleton. The negative control wells were cells with DMSO only, and the positive control wells were cells with […] inhibitor.
Following 24-hour incubation with the compounds plate and Nano-Glo® HiBiT Lytic reagents were equilibrated to room temperature. 20 μL of HiBiT Lytic reagent were added to each well. The assay plate was incubated on digital microplate shaker (350 rpm) for 20 min followed by centrifugation at 500 g for 1 min. Luminescence was recorded using Envision (Perkin-Elmer) using aperture 384-L1 with 0.1 s integration time.
HiBiT signal are used to calculate the % degradation at given compound concentration using the following formula:
% Degradation=(1−(Sample HiBiT signal−Ave Min signal)/(Ave Max signal−Ave Min signal))*100%
For DC50 calculation, the data with the hook effect were removed first and DC50S was reported using a 4-parameter fit of dose response curve using GraphPad in those cases where maximum % degradation was >50% and Minimal % degradation was <50%. The decrease in DC50 reflects that the exemplary compound led to a higher level of degradation of KRasG12D than another exemplary compound at specific timepoint of treatment of cancer cell line. […]
(The HiBiT peptide binds its large partner to form an active luciferase.)

Another assay deals with KRAS G12D (Homo sapiens, UniProt P01116, G12D). Put plainly: In-vitro RAS-RAF binding assay (RRB), HTRF/FRET. In kind it is biochemical. Also noted: Biotinylated KRAS protein amino acids 1-169 (produced at Erasca); made in house. As to conditions: Table 2, average of multiple runs of each compound; read-out: Inhibition of RAS-RAF Binding (in-vitro) KRAS (G12D) IC50. The essentials: as §1
Sequence of KRAS G12D (P01116 1-169 isoform P01116-2 G12D): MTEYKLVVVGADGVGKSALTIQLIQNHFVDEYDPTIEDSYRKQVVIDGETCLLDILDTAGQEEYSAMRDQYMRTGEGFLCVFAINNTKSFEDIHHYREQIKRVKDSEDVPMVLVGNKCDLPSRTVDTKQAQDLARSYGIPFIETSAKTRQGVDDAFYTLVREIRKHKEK

T1 sequence (P01116 1-169 isoform P01116-2): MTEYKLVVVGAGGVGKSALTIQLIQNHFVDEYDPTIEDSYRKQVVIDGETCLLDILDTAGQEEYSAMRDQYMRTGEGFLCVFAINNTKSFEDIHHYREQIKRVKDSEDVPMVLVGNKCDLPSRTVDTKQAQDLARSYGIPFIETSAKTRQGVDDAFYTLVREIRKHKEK
T2 sequence (P01116 1-188 isoform P01116-2 G12D): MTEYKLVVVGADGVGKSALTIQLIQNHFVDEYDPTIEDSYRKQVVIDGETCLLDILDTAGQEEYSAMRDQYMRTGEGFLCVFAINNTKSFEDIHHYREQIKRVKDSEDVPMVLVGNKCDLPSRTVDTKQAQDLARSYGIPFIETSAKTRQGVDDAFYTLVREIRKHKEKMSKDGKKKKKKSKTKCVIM

As for `C#Cc1c(F)ccc2cc(O)cc(-c3ncc4c(N5CC6CCC(C5)N6)nc(OCCN5CCC6(CC5)CN(c5cc([C@H](C(=O)N7C[C@H](O)C[C@H]7C(=O)N[C@@H](C)c7ccc(-c8c(F)cccc8F)cc7)C(C)C)on5)C6)nc4c3F)c12` [Example 16, (2S,4R)-1-[(2R)-2-[3-[7-[2-[4-(3,8-diazabicyclo[3.2.1]octan-3-yl)-7-(8-ethynyl-7-fluoro-3-hydroxy-1-naphthyl)-8-fluoro-pyrido[4,3-d]pyrimidin-2-yl]oxyethyl]-2,7-diazaspiro[3.5]nonan-2-yl]isoxazol-5-yl]-3-methyl-butanoyl]-N-[(1S)-1-[4-(2,6-difluorophenyl)phenyl]ethyl]-4-hydroxy-pyrrolidine-2-carboxamide], the IC50 stood at 940 nM on KRAS (WT) and 9.79 nM at KRAS G12D. Further, the DC50 in assay [1] came to 69.7 nM.

As to `CC(C)[C@@H](C(=O)N1C[C@H](O)C[C@H]1C(=O)N[C@@H](C)c1ccc(-c2c(F)cc(F)cc2F)cc1)c1cc(N2CC3(CCN(CCOc4nc(N5CC6CCC(C5)N6)c5cc(C(F)(F)F)c(-c6ccc(F)c7sc(N)c(C#N)c67)c(F)c5n4)CC3)C2)no1` [Example 75, (2S,4R)-1-((2R)-2-(3-(7-(2-((7-(2-amino-3-cyano-7-fluorobenzo[b]thiophen-4-yl)-4-(3,8-diazabicyclo[3.2.1]octan-3-yl)-8-fluoro-6-(trifluoromethyl)quinazolin-2-yl)oxy)ethyl)-2,7-diazaspiro[3.5]nonan-2-yl)isoxazol-5-yl)-3-methylbutanoyl)-4-hydroxy-N-((S)-1-(2′,4′,6′-trifluoro-[1,1′-biphenyl]-4-yl)ethyl)pyrrolidine-2-carboxamide], the IC50 at KRAS (WT) amounted to 836 nM; at KRAS G12D it was 23.9 nM. For the same molecule, the DC50 in assay [1] was 843 nM.

As to `C[C@H](NC(=O)[C@@H]1C[C@@H](O)CN1C(=O)[C@@H](NC(=O)CCOCCCN1CCC[C@H]1COc1nc(N2CC3CCC(C2)N3)c2cc(Cl)c(-c3ccc(F)c4sc(N)c(C#N)c34)c(F)c2n1)C(C)(C)C)c1ccc(-c2ccccc2Cl)cc1` [Example 96, (2S,4R)-1-((2S)-2-(3-(3-((2S)-2-((((7R)-7-(2-amino-3-cyano-7-fluorobenzo[b]thiophen-4-yl)-4-(3,8-diazabicyclo[3.2.1]octan-3-yl)-6-chloro-8-fluoroquinazolin-2-yl)oxy)methyl)pyrrolidin-1-yl)propoxy)propanamido)-3,3-dimethylbutanoyl)-N—((S)-1-(2′-chloro-[1,1′-biphenyl]-4-yl)ethyl)-4-hydroxypyrrolidine-2-carboxamide], the concentration for half-maximal inhibition (IC50) at KRAS (WT) was 156 nM; on KRAS G12D, 9.2 nM. The DC50 in assay [1] came to 75 nM.

On to `CC(C)[C@@H](C(=O)N1C[C@H](O)C[C@H]1C(=O)N[C@@H](C)c1ccc(-c2c(F)cccc2F)cc1)c1cc(N2CC3(CCN(CCOc4nc(N5CC6CCC(C5)N6)c5cc(Cl)c(-c6ccc(F)c7sc(N)c(C#N)c67)c(F)c5n4)CC3)C2)no1` [Example 70, (2S,4R)-1-((2R)-2-(3-(7-(2-((7-(2-amino-3-cyano-7-fluorobenzo[b]thiophen-4-yl)-4-(3,8-diazabicyclo[3.2.1]octan-3-yl)-6-chloro-8-fluoroquinazolin-2-yl)oxy)ethyl)-2,7-diazaspiro [3.5]nonan-2-yl)isoxazol-5-yl)-3-methylbutanoyl)-N-((S)-1-(2′,6′-difluoro-[1,1′-biphenyl]-4-yl)ethyl)-4-hydroxypyrrolidine-2-carboxamide], for which the IC50 worked out at 5500 nM on KRAS (WT) and 28.6 nM at KRAS G12D. In addition, the DC50 in assay [1] worked out at 501 nM.

Take `CC(C)[C@@H](C(=O)N1C[C@H](O)C[C@H]1C(=O)N[C@@H](C)c1ccc(-c2c(F)cc(F)cc2F)cc1)c1cc(N2CC3(CCN(CCOc4nc(N5CC6CCC(C5)N6)c5cc(Cl)c(-c6ccc(F)c7sc(N)c(C#N)c67)c(F)c5n4)CC3)C2)no1` [Example 68, (2S,4R)-1-((2R)-2-(3-(7-(2-((7-(2-amino-3-cyano-7-fluorobenzo[b]thiophen-4-yl)-4-(3,8-diazabicyclo[3.2.1]octan-3-yl)-6-chloro-8-fluoroquinazolin-2-yl)oxy)ethyl)-2,7-diazaspiro[3.5]nonan-2-yl)isoxazol-5-yl)-3-methylbutanoyl)-4-hydroxy-N-((S)-1-(2′,4′,6′-trifluoro-[1,1′-biphenyl]-4-yl)ethyl)pyrrolidine-2-carboxamide]: the IC50 at KRAS (WT) is > 10000 nM; on KRAS G12D, 19.3 nM. For the same molecule, the DC50 in assay [1] came out at 1280 nM.

`CC(C)[C@@H](C(=O)N1C[C@H](O)C[C@H]1C(=O)N[C@@H](C)c1ccc(-c2c(F)cc(F)cc2F)cc1)c1cc(OCC2(C)CCN(CCOc3nc(N4CC5CCC(C4)N5)c4cc(Cl)c(-c5ccc(F)c6sc(N)c(C#N)c56)c(F)c4n3)CC2)no1` [Example 72, (2S,4R)-1-((2R)-2-(3-((1-(2-((7-(2-amino-3-cyano-7-fluorobenzo[b]thiophen-4-yl)-4-(3,8-diazabicyclo[3.2.1]octan-3-yl)-6-chloro-8-fluoroquinazolin-2-yl)oxy)ethyl)-4-methylpiperidin-4-yl)methoxy)isoxazol-5-yl)-3-methylbutanoyl)-4-hydroxy-N-((S)-1-(2′,4′,6′-trifluoro-[1,1′-biphenyl]-4-yl)ethyl)pyrrolidine-2-carboxamide]: the IC50 was 6730 nM at KRAS (WT) and 29.4 nM on KRAS G12D. For the same molecule, the DC50 in assay [1] stood at 528 nM.

Take `C#Cc1c(F)ccc2cc(O)cc(-c3ncc4c(N5CC6CCC(C5)N6)nc(OCCN5CCC6(CC5)CN(c5cc([C@H](C(=O)N7C[C@H](O)C[C@H]7C(=O)N[C@@H](C)c7ccc(-c8cccc(F)c8F)cc7)C(C)C)on5)C6)nc4c3F)c12` [Example 98, (2S,4R)-1-((2R)-2-(3-(7-(2-((4-(3,8-diazabicyclo[3.2.1]octan-3-yl)-7-(8-ethynyl-7-fluoro-3-hydroxynaphthalen-1-yl)-8-fluoropyrido[4,3-d]pyrimidin-2-yl)oxy)ethyl)-2,7-diazaspiro[3.5]nonan-2-yl)isoxazol-5-yl)-3-methylbutanoyl)-N—((S)-1-(2′,3′-difluoro-[1,1′-biphenyl]-4-yl)ethyl)-4-hydroxypyrrolidine-2-carboxamide]: the results for the IC50 at KRAS (WT) and at KRAS G12D were 1430 nM and 16 nM, respectively. The half-maximal degradation concentration (DC50) in assay [1] turned out to be 107 nM.
